Key:
[1] = system: SKOV-3 Ovarian Cancer Cells; experiment: MTT cytotoxicity assay with combination index analysis; format: cell-based, human; details: for Degree of Combination Effect: Pt complex with CER
Description: In order to determine if the nanoemulsion formulations according to the disclosure produce a cytotoxic effect, the following experiments were done on SKOV3 cells.
A tetrazolium (MTT) assay was performed, which measures the activity of cellular enzymes that reduces the MTT dye to insoluble formazan. SKOV3 cells were treated with corresponding test nanoemulsions or control solutions as indicated below in Table VI. Polyethylenimine at 50 μg/ml was used as a positive control for cytotoxicity. The effect of cis-Pt in solution, nanoemulsion formulations, and EGFR-targeted nanoemulsion formulations of the disclosure on the viability of ovarian SKOV3 cells were studied and measured after 72 hr treatment. After the completion of treatment, cells were incubated with MTT reagent (50 μg/well) for 2 hr. The resulting formazan crystals were dissolved in dimethyl sulfoxide ([…]) and measured at 570 nm in the Plate reader (Synergy HT, Biotek Instruments, Winooski, Vt.).
Values are shown as mean±SD, n=8. All IC50 values were obtained by analyzing the MTT assays results using Graphpad Prism 5 scientific data analysis software.
The optimum concentration of multiple chemotherapeutic agents combined in the nanoemulsion formulations of the present disclosure can be determined by calculating the combination index from the dose response curves of the single agents (Chou (2006) Pharmacol. Rev. 58(3): 621-681). This method uses the isobologram equation below to determine combination index (CI): […]
where, “a” is the primary therapeutic IC50 in combination with secondary therapeutic at concentration “b.” “A” is the primary therapeutic IC50 without secondary therapeutic; and “B” is the secondary therapeutic IC50 in the absence of primary therapeutic. The CI represents the degree of interaction between two drugs regardless of mechanism. […]
For the nanoemulsion formulations of the present disclosure, the ratio of Pt:CER was determined in order to identify ratios that could reduce the IC50 of Pt.

[2] = system: SKOV3 human ovary cancer cells; experiment: In vivo therapeutic efficacy in mice injected ip with SKOV3 cells; parameters: species or system Nu/Nu female mice
Description: In order to determine if the nanoemulsion formulations according to the disclosure produce therapeutic efficacy against cancer in vivo, the following experiment was performed. Orthotropic tumors were developed in 30 Nu/Nu female mice, each weighing approximately 20 g (Charles River Laboratories, Cambridge, Mass.). The mice were injected intraperitoneally (ip) with 4×10^6 SKOV3 human ovary cancer cells (ATCC, Manassas, Va.) suspended in phosphate buffered saline100 μl PBS. The 30 mice were divided into 3 test groups of 10 individual mice. Each mouse was then dosed every 7 d for 5 wk with either nothing (control group) or 1 of 2 test compounds. The first test compound (cisplatin) was administered as a comparative sample in 5 mg/kg doses. The second test compound (EGFR-targeted nanoemulsion formulation containing Pt-MMA and ceramide in a 1:5 molar ratio) was administered in 3 cycles of 5 mg/kg platinum and an additional 2 cycles of 7.5 mg/kg platinum. The doses of Pt-MMA (21 mg/kg) and cis-Platin (5 mg/kg) were calculated so that animals received equivalent amounts of Pt. The survival time of each group of mice was determined and the median survival time (days) calculated using Graphpad Kaplan-Meyers survival analysis software on the basis of the observed survival time of each mouse.

[3] = cited from earlier work
[4] = dosed every 7 d for 5 wk, SKOV3, Nu/Nu mice

Compound: CCCCCCCCCCCCC/C=C/[C@H](O)[C@@H](CO)NC(=O)CCCCC [CER in Solution, C6-ceramide]
- IC50 ([1]; Homo sapiens, SK-OV-3, SKOV-3 cells, MTT, 72 hr treatment, mean±SD, n=8, read-out: IC50 (nM), inhibition of growth): 10000 nM

Compound: cis-Diamine Pt (II) Chloride Monomyristic Acid [Cisplatin-mono-myristate]
- Degree of Combination Effect [1]: synergistically

Compound: N.N.[Cl][Pt][Cl] [Cisplatin in Solution, Cis-dichlorodiammine Pt (II)]
- Median Survival ([2]; Kaplan-Meyers analysis, 10 mice per group): 28 days
- Average Tumor Size at 21 Days (mm^3) [2, 4]: 640 ± 314 mm^3
- Time for First Tumor to Reach 1000 mm^3 [2, 4]: 17 days

Compound: N.N.O=C([O-])C1(C(=O)[O-])CCC1.[Pt+2] [carboplatin]
- half life (published values) [3]: 50.4 min

Compound: cis-Diamine Pt (II) Chloride Monopalmitic Acid [Cisplatin-mono-palmitate]
- Degree of Combination Effect [1]: synergistically
